Data as given in patent US10137170B2, “Lipidated incretin receptor ligand human immunoglobulin Fc-region fusion polypeptides” (INDIANA UNIVERSITY RESEARCH AND TECHNOLOGY CORPORATION, priority 2013, dated 2018).
pEC50: −log10 of the molar value. Starred links: 1 amine or outer side, 2 acyl side, 3 side chain; linkers in the order of their positions; H or OH if unused. Positions of bridges follow the written chain, without caps; N, C: chain ends. Non-standard residues stand in square brackets, D forms with d. Groups on a side chain read outwards from the residue. Chains are numbered I, II in the order given. *: point of attachment. γGlu = O=C(O)[C@H](CCC(=O)[*:2])N[*:1]; Desaminotyrosyl = O=C(CCc1ccc(O)cc1)*; Palmitoyl = CCCCCCCCCCCCCCCC(=O)*; X1 = O=C(C[*:1])[*:2]; Aib = CC(C)(N)C(=O)O

Experiments:
Assay type in all cases: cell-based
GIP-R = molecular target: T1, GIP-R (Homo sapiens, UniProt P48546); experiment: Cyclic AMP (cAMP) assay, cell-suspension format, stably expressed human GIP-receptor in CHO cells
T1 construct: host or cells: CHO-K1 (cAMP Hunter)
T1 sequence (P48546 22-466): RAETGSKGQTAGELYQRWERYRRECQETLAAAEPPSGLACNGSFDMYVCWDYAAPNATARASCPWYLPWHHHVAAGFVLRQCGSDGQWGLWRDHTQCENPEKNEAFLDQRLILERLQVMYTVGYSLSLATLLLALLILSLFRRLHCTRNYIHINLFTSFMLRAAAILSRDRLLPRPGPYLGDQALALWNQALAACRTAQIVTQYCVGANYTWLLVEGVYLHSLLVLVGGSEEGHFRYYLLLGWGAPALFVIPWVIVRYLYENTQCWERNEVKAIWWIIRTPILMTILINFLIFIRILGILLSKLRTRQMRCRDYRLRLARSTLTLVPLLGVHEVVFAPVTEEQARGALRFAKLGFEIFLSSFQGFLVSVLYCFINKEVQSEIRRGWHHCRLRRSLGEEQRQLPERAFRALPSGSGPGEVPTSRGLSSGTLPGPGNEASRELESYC
Method: (§1) On the day of the experiment, the medium was removed and the cell monolayer was washed with 10 mL phosphate buffered saline (PBS) per flask. […] The flask was gently tapped and the cell suspension was pooled. The cell suspension was centrifuged for 3 min. at 150×g, and supernatant was discarded. The cell pellet was resuspended in assay buffer and cell number determined. Cell concentration was adjusted to 2×10^5 cells/mL. A 25 μL cell suspension aliquot was transferred into each well of a 96-well plate using Multi-drop dispenser (5000 cells/well). A 25 μL aliquot of diluted compound was transferred to the cell plate and the cell suspension incubated for 30 min. at RT on a plate shaker (450 rpm). The reaction was stopped by addition of lysis buffer and cAMP generated was determined using the cAMP dynamic 2 kit from Cisbio following the manufacturer's instructions. The time resolved fluorescence signal was determined using an EnVision (PerkinElmer). Cyclic AMP production was calculated based on standard curve run in parallel for every experiment. Data were analyzed using Excel Fit software.

human GLP-R = molecular target: T2, human GLP-R (Homo sapiens, UniProt P43220); experiment: Cyclic AMP (cAMP) assay, cell-suspension format, stably expressed human GLP-1-receptor in CHO cells
T2 construct: host or cells: CHO-K1 (cAMP Hunter)
T2 sequence (P43220 24-463): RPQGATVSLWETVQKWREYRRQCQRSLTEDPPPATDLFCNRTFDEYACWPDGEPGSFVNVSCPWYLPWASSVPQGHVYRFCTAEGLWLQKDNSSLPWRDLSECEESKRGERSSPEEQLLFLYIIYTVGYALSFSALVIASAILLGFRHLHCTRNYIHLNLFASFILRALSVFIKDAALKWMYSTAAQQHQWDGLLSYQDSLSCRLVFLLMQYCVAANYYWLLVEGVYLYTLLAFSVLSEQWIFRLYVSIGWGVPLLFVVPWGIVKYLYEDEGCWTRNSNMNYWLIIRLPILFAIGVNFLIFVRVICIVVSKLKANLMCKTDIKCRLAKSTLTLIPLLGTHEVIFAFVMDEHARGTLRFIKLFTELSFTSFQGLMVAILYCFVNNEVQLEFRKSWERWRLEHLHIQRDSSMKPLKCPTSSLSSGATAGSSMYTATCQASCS
Method: as §1

human GCG-R = molecular target: T3, human GCG-R (Homo sapiens, UniProt P47871); experiment: Cyclic AMP (cAMP) assay, cell-suspension format, stably expressed human GCG-receptor in CHO cells; settings: for pEC50: Table 1, cAMP, CHO cells
T3 construct: host or cells: CHO-K1 (cAMP Hunter)
T3 sequence (P47871 26-477): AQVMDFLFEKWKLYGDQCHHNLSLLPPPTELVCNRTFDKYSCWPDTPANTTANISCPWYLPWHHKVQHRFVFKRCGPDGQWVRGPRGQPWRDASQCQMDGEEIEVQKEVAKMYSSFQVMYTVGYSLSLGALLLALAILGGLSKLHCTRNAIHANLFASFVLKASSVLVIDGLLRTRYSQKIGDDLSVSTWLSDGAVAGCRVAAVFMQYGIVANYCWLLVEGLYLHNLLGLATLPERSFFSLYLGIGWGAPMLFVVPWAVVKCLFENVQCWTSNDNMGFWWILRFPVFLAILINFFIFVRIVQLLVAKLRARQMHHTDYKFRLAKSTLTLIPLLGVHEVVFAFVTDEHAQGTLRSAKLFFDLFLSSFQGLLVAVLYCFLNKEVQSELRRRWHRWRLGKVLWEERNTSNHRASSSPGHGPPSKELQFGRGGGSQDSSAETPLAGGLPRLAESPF
Method: as §1

[1] = Table 1, relative to GIP maximum
[2] = Table 1, relative to GLP-1 maximum
[3] = Table 1, relative to GCG maximum

Row | Substance | human GIP-R % max GIP (GIP-R; [1]) [%] | pEC50 (GIP-R; comparative table) | human GIP-R % max GIP (GIP-R; comparative table) [%] | human GLP-R % max GLP-1 (human GLP-R; [2]) [%] | pEC50 (human GLP-R; comparative table) | human GLP-R % max GLP-1 (human GLP-R; comparative table) [%] | human GCG-R % max GCG (human GCG-R; [3]) [%] | human GCG-R % max GCG (human GCG-R; comparative table) [%] | pEC50 (GIP-R; Table 1, cAMP, CHO cells) | pEC50 (human GLP-R; Table 1, cAMP, CHO cells) | pEC50 (human GCG-R)
1 | I: H-Y[Aib]EGTFTSDK([γGlu-γGlu-Palmitoyl])SIYLDKQAA[Aib]EFVNWLLAGGPSSGAPPPSC-NH2 / II: LPETGGSGS-OH (linker I:40-II:N via X1) [compound 10] | 86.7 | 11.00 | 97 | 96.7 | 10.70 | 96 | 100.2 | 98 |  |  | 
2 | I: Ac-[dY]ALGTFTSDK([γGlu-Palmitoyl])SKYLDERAAQDFVQWLLEGGPSSGAPPPSC-NH2 / II: GGGLPETGGSGS-OH (linker I:40-II:N via X1) [compound 12] |  |  | 90 |  |  | 94 |  | 100 |  |  | 
3 | I: Desaminotyrosyl-AEGTFTSDK([γGlu-Palmitoyl])SKYLDERAAQDFVQWLLEGGPSSGAPPPSC-NH2 / II: GGGLPETGGSGS-OH (linker I:39-II:N via X1) [compound 11] |  |  | 83 |  |  | 67 |  | 28 |  |  | 
4 | I: Ac-[dY]AVGTFTSDK([γGlu-Palmitoyl])SKYLDERAAQDFVQWLLEGGPSSGAPPPSC-NH2 / II: GGGLPETGGSGS-OH (linker I:40-II:N via X1) [compound 13] |  |  | 91 |  |  | 73 |  | 99 |  |  | 
5 | Dulaglutide [reference compound] | 13.8 |  |  | 98.2 |  |  | 1.6 |  | < 6.22 | 9.89 | < 6.22
6 | I: H-Y[Aib]EGTFTSDK([γGlu-γGlu-Palmitoyl])SIYLDKQAA[Aib]EFVNWLLAGGPSSGAPPPSC-NH2 / II: GGGLPETGGSGS-OH (linker I:40-II:N via X1) [compound 9] | 90.7 | 11.00 | 100 | 99.9 |  | 91 | 109.0 | 109 |  |  | 8.05
